These results are taken from US20150165000A1, “COMPOSITION FOR THERMOSTABILIZATION OF HUMAN SERUM ALBUMIN AND METHOD OF PREPARING THERMALLY STABILIZED HUMAN SERUM ALBUMIN USING THE SAME” (Ewha University - Industry Collaboration Foundation, priority 2012, published 2015).

Data set [1] concerns the target T1, human serum albumin (Homo sapiens, UniProt P02768).
T1 construct: the single supply source of human serum albumin is currently the blood of humans; purchased Sigma-Aldrich A3782
In words: Thermal denaturation of human serum albumin solution: check of precipitation during heating. In kind it is physicochemical. The procedure:
Thus, the present inventors estimated oleic acid affecting stability depending on the temperature. […] Specifically, while the temperature was maintained at 65° C., 70° C. and 75° C., whether the precipitation was formed due to denaturation of protein was checked at intervals of 30 min, 5 min and 3 min, respectively.
Thermostabilizing effects were evaluated at 70° C. using other C18 fatty acids including stearic acid, linoleic acid, α-linolenic acid and γ-linolenic acid, as well as oleic acid, in the same manner as in Example 6.1. for testing of stability against denaturation due to thermal treatment using oleic acid.
Thermostabilizing effects at 65° C. were evaluated using C16 fatty acids including palmitic acid and palmitoleic acid, as well as oleic acid as the C18 fatty acid, in the same manner as in Examples 6.1. and 6.2. for testing of stability against degeneration due to thermal treatment using various C18 fatty acids including oleic acid. The samples were warmed to 65° C. and observed at an interval of 5 min.
Thermostabilizing effects at 65° C. were evaluated using EPA (eicosapentaenoic acid) and DHA (docosahexanoic acid) as C20 and C22 fatty acids, as well as oleic acid as the C18 fatty acid, in the same manner as in Examples 6.1. to 6.3. for testing of stability against denaturation due to thermal treatment using various C16 and C18 fatty acids.

The target of data set [2] is T1, human serum albumin. In words: Structural stability against thermal treatment: secondary structure composition from circular dichroism. In kind it is physicochemical. Conditions: for structural stability (ratio of α-helix / circular dichroism spectrum), in words / structural stability (ratio of α-helix by circular dichroism), in words: albumin 1 mg/mL. The procedure:
The composition of the secondary structure of protein may be estimated using circular dichroism, and thus changes in structure of the thermally denatured protein may be measured.
Measurement of circular dichroism was performed three times under conditions of a data pitch of 0.2 nm, a band width of 1.0 nm, a response time of 4 sec, and a scanning speed of 50 nm/min using a quartz cuvette having a path length of 0.1 cm by use of Jasco J-715 spectropolarimeter. The composition of the secondary structure was assayed from the measured circular dichroism values using SELCON3 program contained in the Dicroprot program.
(Circular dichroism is the unequal absorption of left and right circularly polarised light.)

Each structure is given as a SMILES string.

T1 sequence (P02768 25-609): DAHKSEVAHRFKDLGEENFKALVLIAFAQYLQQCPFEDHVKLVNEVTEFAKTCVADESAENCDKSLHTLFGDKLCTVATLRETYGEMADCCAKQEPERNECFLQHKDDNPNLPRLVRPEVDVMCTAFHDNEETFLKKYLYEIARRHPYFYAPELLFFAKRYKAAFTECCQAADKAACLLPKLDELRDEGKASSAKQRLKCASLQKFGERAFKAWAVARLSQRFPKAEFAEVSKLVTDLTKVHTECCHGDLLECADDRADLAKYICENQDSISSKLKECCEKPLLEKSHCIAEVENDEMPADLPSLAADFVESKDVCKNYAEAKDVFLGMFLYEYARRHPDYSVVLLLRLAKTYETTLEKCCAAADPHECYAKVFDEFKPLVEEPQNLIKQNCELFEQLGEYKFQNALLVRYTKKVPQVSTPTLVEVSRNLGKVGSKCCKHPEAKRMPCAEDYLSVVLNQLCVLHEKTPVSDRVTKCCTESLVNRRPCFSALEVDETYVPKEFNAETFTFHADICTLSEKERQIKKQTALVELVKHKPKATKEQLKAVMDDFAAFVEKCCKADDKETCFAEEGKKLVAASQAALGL

For the compound `CC/C=C\C/C=C\C/C=C\C/C=C\C/C=C\C/C=C\CCC(=O)O` [DHA, (4Z,7Z,10Z,13Z,16Z,19Z)-docosa-4,7,10,13,16,19-hexaenoic acid], the “stability against denaturation due to thermal treatment compared to the human serum albumin control” value on human serum albumin [1] (65° C., albumin 50 mg/mL, Examples 6.3, 6.4) is recorded as “much higher”.

Regarding `CCCCC/C=C\C/C=C\CCCCCCCC(=O)O` [linoleic acid], the “structural stability (ratio of α-helix / circular dichroism spectrum), in words” value at human serum albumin [2] (heated at 70° C. for 10 hr) is on record as “maintained”.

Turning to `CCCCCCCC/C=C\CCCCCCCC(=O)O` [oleic acid], the “time for which denaturation was not observed” value on human serum albumin [1] (60° C., albumin 50 mg/mL, fatty acid 1:1) was ≥ 10 h. In addition, the “time for which denaturation did not occur” value at human serum albumin [1] (65° C., albumin 50 mg/mL, fatty acid 1:1) is “about 6 hr”. Besides, the “time after which precipitation began to form” value at human serum albumin [1] (65° C., albumin 50 mg/mL, Example 6.1) is 330 min; on human serum albumin [1] (70° C., albumin 50 mg/mL, Example 6.1), 30 min. At human serum albumin [1] (70° C.), the “period of time maintained stably compared to the fatty acid-free human serum albumin solution” value is reported as “two times as long or more”. Besides, the “difference between the control and the test group” value at human serum albumin [1] (75° C., albumin 50 mg/mL, Example 6.1) is “no difference”. The “structural stability (ratio of α-helix by circular dichroism), in words” value on human serum albumin [2] (heated at 60° C. for 10 hr) is given as “maintained”; at human serum albumin [2] (heated at 80° C. for 10 hr), “deteriorated”. Also, the “structural stability (ratio of α-helix / circular dichroism spectrum), in words” value on human serum albumin [2] (heated at 70° C. for 10 hr) is reported as “maintained”. Further, at human serum albumin [2] (heated at 70° C. for 10 hr, albumin 1 to 40 mg/mL, Example 8), the “structural stability (circular dichroism spectrum), in words” value is listed as “stability thereof was maintained”.

With `CCCCCCC=CCCCCCCCC(=O)O` [palmitoleic acid, hexadec-9-enoic acid], the “structural stability (ratio of α-helix / circular dichroism spectrum), in words” value at human serum albumin [2] (heated at 70° C. for 10 hr) is “maintained”.

`CC/C=C\C/C=C\C/C=C\CCCCCCCC(=O)O` [α-linolenic acid, all-cis-9,12,15-octadecatrienoic acid]: on human serum albumin [2] (heated at 70° C. for 10 hr), the “structural stability (ratio of α-helix / circular dichroism spectrum), in words” value is recorded as “maintained”.

For `CCCCC/C=C\C/C=C\C/C=C\CCCCC(=O)O` [γ-linolenic acid], the “structural stability (ratio of α-helix / circular dichroism spectrum), in words” value at human serum albumin [2] (heated at 70° C. for 10 hr) is recorded as “maintained”.
